For data set [1], the system named is fibroblast. The settings on record: cited from earlier work.
The subject of data set [2] is human keratinocytes. The settings on record: cited from earlier work.
In data set [3] the test system is skin. As to conditions: rat; cited from earlier work.
A short description of data set [4]: Solubility of DHEA at ambient temperature in different solvents (HPLC of supernatant). It counts as physicochemical. As to conditions: ambient temperature (25° C.), after 24 hours. The procedure: The solubility of DHEA was evaluated at ambient temperature in different solvents. For this purpose the DHEA was dispersed in excess in the solvent in question, which had been brought to 60° C. beforehand. This temperature was maintained for one hour, with stirring using a magnetic bar. The suspension was subsequently returned to ambient temperature (25° C.). After 24 hours the suspension was centrifuged in order to remove the undissolved DHEA crystals. The supernatant was taken and checked for the absence of DHEA crystals by cross-polarized light microscopy. This supernatant was subsequently analysed by HPLC. The amount of DHEA detected is taken to correspond to its maximum solubility in the solvent in question.

Structures are written as SMILES.

Data on 2 compounds can be found in patent publication US20040186085A1, “Composition containing a steroid and a glycol” (priority 2001, published 2004).

As to `C[C@]12CC[C@H](O)CC1=C[C@@H](O)[C@@H]1[C@@H]2CC[C@]2(C)C(=O)CC[C@@H]12` [7α-hydroxy-DHEA], in data set [1], the fibroblast proliferation result is recorded as “increase”. Further, the “viability of human keratinocytes” value in data set [2] is “increase”. For the same compound, in data set [3], the “elastin content and collagen content of the skin” value is on record as “increases”; the “thickness of the dermis” value is on record as “increases”.

Consider `C[C@]12CC[C@H](O)CC1=CC[C@@H]1[C@@H]2CC[C@]2(C)C(=O)CC[C@@H]12` [DHEA, dehydroepiandrosterone], for which the DHEA solubility in data set [4] (solvent Dipropylene glycol) was 10.48% by weight; in data set [4] (solvent Glycerol), 0.15% by weight; in data set [4] (solvent PEG-400) it was 3.67% by weight; in data set [4] (solvent Propylene glycol), 5.88% by weight; in data set [4] (solvent Sorbitol), 0.05% by weight.
